The structures appear in SMILES notation. pIC50: −log10 of the molar value.

The assay deals with T1, human TLR8 (Homo sapiens, UniProt Q9NR97).
T1 sequence (Q9NR97 27-1041): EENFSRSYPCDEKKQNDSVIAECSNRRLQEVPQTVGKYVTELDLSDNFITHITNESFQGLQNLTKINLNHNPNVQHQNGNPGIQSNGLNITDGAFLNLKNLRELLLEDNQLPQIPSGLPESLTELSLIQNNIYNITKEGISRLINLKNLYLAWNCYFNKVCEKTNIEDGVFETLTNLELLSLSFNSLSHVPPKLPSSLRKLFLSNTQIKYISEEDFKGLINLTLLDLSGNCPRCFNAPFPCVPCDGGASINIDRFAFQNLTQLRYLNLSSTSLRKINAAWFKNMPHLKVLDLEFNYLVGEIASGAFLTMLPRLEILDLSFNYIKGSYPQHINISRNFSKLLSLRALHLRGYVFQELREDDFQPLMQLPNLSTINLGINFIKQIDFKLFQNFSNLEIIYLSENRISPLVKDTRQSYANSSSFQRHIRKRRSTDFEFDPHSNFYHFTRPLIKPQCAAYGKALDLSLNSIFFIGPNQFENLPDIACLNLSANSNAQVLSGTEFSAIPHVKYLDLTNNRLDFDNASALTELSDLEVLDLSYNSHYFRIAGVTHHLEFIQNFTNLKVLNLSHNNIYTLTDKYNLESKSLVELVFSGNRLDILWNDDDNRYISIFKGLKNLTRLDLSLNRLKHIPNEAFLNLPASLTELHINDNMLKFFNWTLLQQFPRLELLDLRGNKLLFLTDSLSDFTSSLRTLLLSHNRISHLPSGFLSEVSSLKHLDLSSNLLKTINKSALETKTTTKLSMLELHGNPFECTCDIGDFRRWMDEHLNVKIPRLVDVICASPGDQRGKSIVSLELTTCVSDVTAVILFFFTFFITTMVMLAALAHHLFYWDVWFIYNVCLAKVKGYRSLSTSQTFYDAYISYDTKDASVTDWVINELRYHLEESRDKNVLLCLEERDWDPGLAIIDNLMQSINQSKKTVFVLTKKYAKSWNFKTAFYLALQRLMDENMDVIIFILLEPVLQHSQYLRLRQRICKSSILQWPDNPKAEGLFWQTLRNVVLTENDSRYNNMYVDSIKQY
Kind of assay: HEK293-Blue-hTLR-8 cells assay (SEAP reporter, R848 stimulation). Format: cell-based. The note with it: HEK293-Blue-hTLR8 cells, R848 ligand, 20 hrs incubation. From the text:
A stable HEK293-Blue-hTLR-8 cell line was purchased from InvivoGen (Cat. #: hkb-htlr8, San Diego, Calif., USA). These cells were originally designed for studying the stimulation of human TLR8 by monitoring the activation of NF-κB. A SEAP (secreted embryonic alkaline phosphatase) reporter gene was placed under the control of the IFN-β minimal promoter fused to five NF-κB and AP-1-binding sites. The SEAP was induced by activating NF-κB and AP-1 via stimulating HEK-Blue hTLR8 cells with TLR8 ligands. Therefore the reporter expression was declined by TLR8 antagonist under the stimulation of a ligand, such as R848, for incubation of 20 hrs. The cell culture supernatant SEAP reporter activity was determined using QUANTI-Blue™ kit (Cat. #: rep-qb1, Invivogen, San Diego, Ca, USA) at a wavelength of 640 nm, a detection medium that turns purple or blue in the presence of alkaline phosphatase.
HEK293-Blue-hTLR8 cells were incubated at a density of 250,000˜450,000 cells/mL in a volume of 170 μL in a 96-well plate in Dulbecco's Modified Eagle's medium (DMEM) containing 4.5 g/L glucose, 50 U/mL penicillin, […], […], 2 mM L-glutamine, 10% (v/v) heat-inactivated fetal bovine serum with addition of 20 μL test compound in a serial dilution in the presence of final DMSO at 1% and 10 μL of 60 uM R848 in above DMEM, perform incubation under 37° C. in a CO2 incubator for 20 hrs. Then 20 μL of the supernatant from each well was incubated with 180 μL Quanti-blue substrate solution at 37° C. for 2 hrs and the absorbance was read at 620˜655 nm using a spectrophotometer. The signalling pathway that TLR8 activation leads to downstream NF-κB activation has been widely accepted, and therefore similar reporter assay was modified for evaluating TLR8 antagonist.

On to `C[C@@H]1CN(c2ccc(C#N)n3nccc23)C[C@H](CN2CCC3(CCNC3)C2)O1` (stereo partly drawn) [Example 6, 4-[(2S,6R)-2-(2,7-diazaspiro[4.4]nonan-2-ylmethyl)-6-methyl-morpholin-4-yl]pyrazolo[1,5-a]pyridine-7-carbonitrile], for which the pIC50 – broadly, the negative decadic logarithm of the IC50, by convention in mol/L – is 6.85.
The molecule `C[C@@H]1CN(c2ccc(C#N)n3nccc23)C[C@H](CN2CCC(C)(N)CC2)O1` [Example 29, 4-[(2S,6R)-2-[(4-amino-4-methyl-1-piperidyl)methyl]-6-methyl-morpholin-4-yl]pyrazolo[1,5-a]pyridine-7-carbonitrile] showed a pIC50 of 7.28.
The value for `C[C@@H]1CN(c2ccc(C#N)n3nccc23)C[C@H](CN2CC3(CCCNCC3)C2)O1` [Example 46, 4-[(2S,6R)-2-(2,8-diazaspiro[3.6]decan-2-ylmethyl)-6-methyl-morpholin-4-yl]pyrazolo[1,5-a]pyridine-7-carbonitrile] was 6.82.
`C[C@@H]1CN(c2ccc(C#N)n3nccc23)C[C@H](CN2CCC(N)C(F)(F)C2)O1` (stereo partly drawn) [Example 34, 4-[(2S,6R)-2-[(4-amino-3,3-difluoro-1-piperidyl)methyl]-6-methyl-morpholin-4-yl]pyrazolo[1,5-a]pyridine-7-carbonitrile] showed a pIC50 of 7.19.
With `C[C@@H]1CN(c2ccc(C#N)n3nccc23)C[C@H](CN2CCNCC2Cc2ccccc2)O1` (stereo partly drawn) [Example 59, 4-[(2S,6R)-2-[(2-benzylpiperazin-1-yl)methyl]-6-methyl-morpholin-4-yl]pyrazolo[1,5-a]pyridine-7-carbonitrile], the pIC50 was 8.22.
Then `C[C@@H]1CN(c2ccc(C#N)n3nccc23)C[C@H](CN2CCC(N)(c3ccccc3)CC2)O1` [Example 73, 4-[(2S,6R)-2-[(4-amino-4-phenyl-1-piperidyl)methyl]-6-methyl-morpholin-4-yl]pyrazolo[1,5-a]pyridine-7-carbonitrile], with 7.33.
With `C[C@@H]1CN(c2ccc(C#N)n3nccc23)C[C@H](CN2CC3CCNCC32)O1` (stereo partly drawn) [Example 56, 4-[(2S,6R)-2-(3,8-diazabicyclo[4.2.0]octan-8-ylmethyl)-6-methyl-morpholin-4-yl]pyrazolo[1,5-a]pyridine-7-carbonitrile], the pIC50 is 6.32.
`C[C@@H]1CN(c2ccc(C#N)n3nccc23)C[C@H](CN2CCC(CN)CC2)O1` [Example 12, 4-[(2S,6R)-2-[[4-(aminomethyl)-1-piperidyl]methyl]-6-methyl-morpholin-4-yl]pyrazolo[1,5-a]pyridine-7-carbonitrile] had a pIC50 of 6.55.
Take `C[C@@H]1CN(c2ccc(C#N)n3nccc23)C[C@H](CN2CCC3(CCCN3)CC2)O1` [Example 53, 4-[(2S,6R)-2-(1,8-diazaspiro[4.5]decan-8-ylmethyl)-6-methyl-morpholin-4-yl]pyrazolo[1,5-a]pyridine-7-carbonitrile]: the pIC50 is 7.54.
Then `C[C@@H]1CN(c2ccc(C#N)n3nccc23)C[C@H](CN2C[C@H]3CC[C@@H](N(C)C)[C@H]3C2)O1` (racemic) [Example 75, 4-[(2S,6R)-2-[[4-(dimethylamino)-3,3a,4,5,6,6a-hexahydro-1H-cyclopenta[c]pyrrol-2-yl]methyl]-6-methyl-morpholin-4-yl]pyrazolo[1,5-a]pyridine-7-carbonitrile], with 6.22; and `C[C@@H]1CN(c2ccc(C#N)n3nccc23)C[C@H](CN2CCC3(CCNCC3)CC2)O1` [Example 3, 4-[(2S,6R)-2-(3,9-diazaspiro[5.5]undecan-3-ylmethyl)-6-methyl-morpholin-4-yl]pyrazolo[1,5-a]pyridine-7-carbonitrile], with 6.21.
Molecule `CC1CNCCN1C[C@H]1CN(c2ccc(C#N)n3nccc23)C[C@@H](C)O1` (single isomer, unassigned) [Example 50B] showed a pIC50 of 7.28.
Molecule `C[C@@H]1CN(c2ccc(C#N)n3nccc23)C[C@H](CN2CCC3(CCCNC3)C2)O1` (stereo partly drawn) [Example 25, 4-[(2S,6R)-2-(2,9-diazaspiro[4.5]decan-2-ylmethyl)-6-methyl-morpholin-4-yl]pyrazolo[1,5-a]pyridine-7-carbonitrile] gave a pIC50 of 7.06.
`C[C@@H]1CN(c2ccc(C#N)n3nccc23)C[C@H](CN2CCN(C3CCNCC3)CC2Cc2ccccc2)O1` (stereo partly drawn) [Example 77, 4-[(2S,6R)-2-[[2-benzyl-4-(4-piperidyl)piperazin-1-yl]methyl]-6-methyl-morpholin-4-yl]pyrazolo[1,5-a]pyridine-7-carbonitrile]: the pIC50 is 6.89.
Molecule `C[C@@H]1CN(c2ccc(C#N)n3nccc23)C[C@H](CN2CCN(C)CC2)O1` [Example 15, 4-[(2R,6S)-2-methyl-6-[(4-methylpiperazin-1-yl)methyl]morpholin-4-yl]pyrazolo[1,5-a]pyridine-7-carbonitrile] had a pIC50 of 6.74.
The molecule `C[C@@H]1CN(c2ccc(C#N)n3nccc23)C[C@H](CN2C3CCC2CNC3)O1` [Example 43, 4-[(2S,6R)-2-(3,8-diazabicyclo[3.2.1]octan-8-ylmethyl)-6-methyl-morpholin-4-yl]pyrazolo[1,5-a]pyridine-7-carbonitrile] showed a pIC50 of 7.51.
As to `C[C@@H]1CN(c2ccc(C#N)n3nccc23)C[C@H](CN2CCC(N3CCN(C)CC3)CC2)O1` [Example 1, 4-[(2R,6S)-2-methyl-6-[[4-(4-methylpiperazin-1-yl)-1-piperidyl]methyl]morpholin-4-yl]pyrazolo[1,5-a]pyridine-7-carbonitrile], the pIC50 is 7.55.
Take `C[C@@H]1CN(c2ccc(C#N)n3nccc23)C[C@H](CN2CC3(CC(N)C3)C2)O1` [Example 11, 4-[(2S,6R)-2-[(6-amino-2-azaspiro[3.3]heptan-2-yl)methyl]-6-methyl-morpholin-4-yl]pyrazolo[1,5-a]pyridine-7-carbonitrile]: the pIC50 is 6.03.
The value for `C[C@@H]1CN(c2ccc(C#N)n3nccc23)C[C@H](CN2CCC3(CCCCN3)CC2)O1` [Example 47, 4-[(2S,6R)-2-(1,9-diazaspiro[5.5]undecan-9-ylmethyl)-6-methyl-morpholin-4-yl]pyrazolo[1,5-a]pyridine-7-carbonitrile] was 7.51; that for `C[C@@H]1CN(c2ccc(C#N)n3nccc23)C[C@H](CN2CC3CNCCC32)O1` (stereo partly drawn) [Example 52, 4-[(2S,6R)-2-(3,7-diazabicyclo[4.2.0]octan-7-ylmethyl)-6-methyl-morpholin-4-yl]pyrazolo[1,5-a]pyridine-7-carbonitrile] was 7.28; that for `C[C@@H]1CN(c2ccc(C#N)n3nccc23)C[C@H](CN2CCCC3(CNC3)C2)O1` [Example 33, 4-[(2S,6R)-2-(2,6-diazaspiro[3.5]nonan-6-ylmethyl)-6-methyl-morpholin-4-yl]pyrazolo[1,5-a]pyridine-7-carbonitrile] was 7.27.
In turn, `C[C@@H]1CN(c2ccc(C#N)n3nccc23)C[C@H](CN2CC3CCCNC3C2)O1` (stereo partly drawn) [Example 45, 4-[(2S,6R)-2-(1,2,3,4,4a,5,7,7a-octahydropyrrolo[3,4-b]pyridin-6-ylmethyl)-6-methyl-morpholin-4-yl]pyrazolo[1,5-a]pyridine-7-carbonitrile] had a pIC50 of 6.64.
Take `C[C@@H]1CN(c2ccc(C#N)n3nccc23)C[C@H](CN2C3COCC2CC(N)C3)O1` (stereo partly drawn) [Example 58, 4-[(2S,6R)-2-[(7-amino-3-oxa-9-azabicyclo[3.3.1]nonan-9-yl)methyl]-6-methyl-morpholin-4-yl]pyrazolo[1,5-a]pyridine-7-carbonitrile]: the pIC50 is 7.24.

Values taken from patent publication US20220112187A1, “PYRAZOLOPYRIDINE AMINE COMPOUNDS FOR THE TREATMENT OF AUTOIMMUNE DISEASE” (Hoffmann-La Roche Inc., priority 2018, published 2022).
